Experimental data: article PMC7687371, “Quantitative in Vitro to in Vivo Extrapolation (QIVIVE) for Predicting Reduced Anogenital Distance Produced by Anti-Androgenic Pesticides in a Rodent Model for Male Reproductive Disorders” (Environmental Health Perspectives, 2020)
Like-named read-outs stand apart in the source and are kept apart here. Marks after values point to notes of the source that are not given here.

Assays:
NCI-H295R cells = test: H295R steroidogenesis assay; format: cell-based, human; conditions: for Effect on androgen (steroid) synthesis, in words: H295R steroidogenesis assay; for IC20: read-out: Testosterone inhibition (IC20 µM); for IC50: 48 h, read-out: Testosterone inhibition (IC50, μM)
Method: To capture effects on steroid hormone synthesis (testosterone and androstendione), we tested all 12 pesticides in the H295R assay with the human adrenocortical carcinoma cell line NCI-H295R (American Type Culture Collection no. CRL-2,128, LGC Standards), as previously described ([Hecker et al. 2011]; [Rosenmai et al. 2013]). In brief, cells were cultured in DMEM/F-12 +glutamine medium with HEPES buffer (Invitrogen) containing 1% insulin-transferrin-sodium selenite plus Premix (VWR) and 2.5% Nu-Serum (BD Bioscience) at 37°C in a 5% CO2 atmosphere. The day before exposure, cells were seeded 300,000 per well in clear 24-well plates (VWR Corning). Cells were exposed for 48 h to control (Forskolin: 1μM , 10μM (Sigma-Aldrich); and Prochloraz: 0.3μM , 3μM (VWR-Bie and Berntsen) or test compounds. The vehicle (DMSO) concentration was kept constant in all wells (0.1%). After 48 h, the exposure culture medium was removed and stored at –80°C until the levels of 10 steroid hormones (testosterone, androstenedione, aldosterone, corticosterone, cortisol, dehydroepiandrosterone, 17α-hydroxyprogesterone , progesterone, estrone, and 17β-estradiol ) were quantified using the high-performance liquid chromatography–tandem mass spectrometry method described elsewhere ([Mortensen and Pedersen 2007]). Minor modifications were made to accommodate a smaller sample size and to include more hormones. The liquid chromatography system (Agilent 1100) was equipped with an Atlantis C18 column ( 2.1×150mm , 3μm ) (Waters Corp.) maintained at 40°C. The sample injection volume was 50μL . […] The mass spectrometer was a Quattro Ultima triple quadrupole instrument (Waters Corp.). […] Each pesticide was tested in 2-fold serial dilutions at concentrations between 0.8 and 50μM in three independent experiments, and hormone levels were normalized to the solvent controls containing 0.1% DMSO. Cell viability was evaluated by using the 3-(4,5-dimethylthiazol-2-yl)-2,5- diphenyltetrazolium bromide (MTT) assay (Sigma) as previously described ([Hecker et al. 2011]; [Rosenmai et al. 2013]). Fluorescence was measured (excitation 560 nm , emission 590 nm ) using a Wallac Victor2 1420 multilabel counter (PerkinElmer).

[1] = design: method as in U.S. EPA 2012; conditions: EPI Suite, experimental preferred over modeled; ref U.S. EPA 2012; cited from earlier work
[2] = PBK model first-order kinetic parameters fitted to in vivo ADME data; design: species or system rat; conditions: for Metabolism rate in liver, Total (L/h) KMetab: metabolic clearance
pregnant dams and pups = conditions: cited from earlier work; for Critical toxicity / NOAEL (mg/kg bw) / LOAEL (mg/kg bw): ref EFSA's Draft Assessment Reports (DARs)
Wistar rats [3] = test: In vivo Study 3 (fludioxonil, cyprodinil, dimethomorph), reproductive/developmental toxicity, AGD
Wistar rats [4] = conditions: rat, in vivo
[5] = Fetal chemical exposure analysis (LC-QTOF) at GD21; format: in vivo, rat; conditions: male, Wistar, rat, in vivo, 60 mg/kg/day
Method: Dams were decapitated under CO2 /oxygen anesthesia at GD21 and fetuses collected by cesarean section. Prior to decapitation of the fetuses, their BWs and AGDs were recorded. Blood from the dams was collected in heparinized vacutainer tubes, centrifuged at 125×g for 10 min at 4°C to prepare plasma, and, together with the amniotic fluid, frozen directly. Pooled trunk blood from all female and male fetuses of the same litter (female and male blood separately) was collected into heparin-treated capillary tubes approximately 90 min after dosing and the plasma was prepared and stored at −80°C until analysis for pesticides and selected metabolites by liquid chromatography quadrupole time-of-flight mass spectroscopy (LC-QTOF). Details about the LC-QTOF analyses are provided in “Method S1” in Supplemental Material. Amniotic fluid was collected from fetuses by pipetting, pooled within each litter, snap frozen in liquid nitrogen, and subsequently stored at −80 °C .
Method S1. Chemical analysis of pesticide levels
Acetonitrile, methanol, formic acid and 25% ammonium hydroxide, all of LC-MS grade and ethyl acetate were obtained from Sigma Aldrich, Schneldorf, Germany. Isolute bulk C-18 sorbent was obtained from Biotage, Sweden and was washed with acetonitrile and ethyl acetate and dried prior to use. Water was purified on a Milli Q system, Millipore Corporation, US.
Pesticide standards were purchased from Dr. Ehrenstorfer (Augsburg, Germany), LGC-standards (Teddington, Middlesex, UK) and Sigma Aldrich (St. Louis, MO, USA). Acetonitrile used as solvents for the LC-QTOF was LiChrosolv Hypergrade. An ESI-L low concentration tuning mix from Agilent (Santa Clara, CA, USA) was used for tuning of the TOF. A reference solution was prepared containing Purine and HP0921 from Agilent (Santa Clara, CA, USA).
Stock solutions of the pesticides were prepared at 1 mg/ml in acetonitrile, methanol or toluene.
Standard mixtures containing the test compounds were prepared at a concentration of 10 µg/ml acetonitrile and used for preparation of calibration solutions. Isomers eluting very close to each other were avoided in these mixtures. […]
added 200 µl of ice-cold acetonitrile in Eppendorf tubes. Internal standard was added in the form of 10 µl TPP (5 µg/ml) and the extraction was performed by whirl mixing. The tube was then stored on ice for 5 min and then centrifuged at 10,000 x g for 10 min at 4 °C (Ole Dich Instrument, Denmark). An aliquot of the supernatant was transferred to filter vials (0.45 µm) and analysed by […]
Quality control samples were included in each analytical run. These were prepared using the same procedure as for the samples, though using amniotic fluid from untreated control Wistar rats extracted with acetonitrile containing three different levels of the relevant pesticide standards. The resulting spike levels were 0.04, 0.013 and 0.13 µg/ml. […]
fluid or plasma from Sprague Dawley rats was transferred to an Eppendorf vial and added 150 µl of acetonitrile. 50 mg of isolute C-18 sorbent was added to the tube, which was shaken for 5 min, […]
cooled to 4 °C and centrifuged at 10,000 x g for 10 min at 4 °C (Ole Dich Instrument makers, Denmark). 20 µl of the supernatant was transferred to an HPLC vial and mixed with 80 µl of 5%- 75% acetonitrile (this percentage was analyte dependent) prior to analysis by LC-MS.LC -QTOF […]
Pesticide screening was carried out using a liquid chromatography-electrospray ionization-quadrupole-time of flight-mass spectrometer.
The LC system was connected to a Bruker Daltonics, maXis qTOF mass spectrometer equipped with an electrospray ion source operated in positive ion mode (Bruker Daltonics, Bremen, Germany). The ion source settings were: nebulizer pressure 2 bars, drying gas flow 8 l/min, dry gas temperature 200 °C, capillary voltage 2500 V. The scan range was from 80 to 700 m/z with an acquisition rate of 2 Hz. Sodium formate dissolved in 50% 2-propanol was introduced in the ion […]

[6] = cited from earlier work
Sprague-Dawley rats = test: In vivo Study 2 (linuron), reproductive/developmental toxicity, AGD; conditions: for AGDI mean: Study 2, male pups; for AGDI reduction (%): male offspring, normalized AGDI scale

## CC1(C)[C@H](C(=O)O[C@H](C#N)c2cccc(Oc3ccccc3)c2)[C@@H]1/C=C(\Cl)C(F)(F)F (racemic) [λ-Cyhalothrin, λ-cyhalothrin]
NCI-H295R cells
  Effect on androgen (steroid) synthesis, in words: no effect on any measured androgen
NCI-H295R cells; Homo sapiens, NCI-H295R
  IC20: > 50 µM
NCI-H295R cells; multiple contrast tests
  Corticosterone, LOEC: 3.1 µM
  Cortisol, LOEC: 3.1 µM
[1]
  log Kow: 6.80
[2]; PBK model parameter
  Fecal excretion rate from gut (L/h) KFeces: 4 L/h
  Portal GI absorption rate into liver (L/h) KAS: 1 L/h
  Urine excretion rate from kidney (L/h) KUrine: 0.05 L/h
  Metabolism rate in liver, Total (L/h) KMetab: 0.3 L/h
Pregnant dams and pups
  Critical toxicity: Reduced maternal and pup BW

## Cc1cc(C2CC2)nc(Nc2ccccc2)n1 [Cyprodinil, cyprodinil]
NCI-H295R cells
  Effect on androgen (steroid) synthesis, in words: inhibited testosterone synthesis
NCI-H295R cells; Homo sapiens, NCI-H295R
  IC50: 8.5 µM
  IC20: 0.4 µM
NCI-H295R cells; multiple contrast tests
  Androstendione, LOEC: 6.3 µM
  Corticosterone, LOEC: 25 µM
  Cortisol, LOEC: 25 µM
  Estradiol, LOEC: 6.3 µM
  Testosterone, lowest observed effect concentration (LOEC): 6.3 µM
Wistar rats [3]; 20 mg/kg bw/day
  % postnatal deaths: 1.2 ± 3.7%
Wistar rats [3]; 60 mg/kg bw/day
  % postnatal deaths: 0.0 ± 0.0%
Wistar rats [3]; 180 mg/kg bw/day
  % postnatal deaths: 0.0 ± 0.0%
[1]
  log Kow: 4.00
[2]; PBK model parameter
  Biliary excretion rate (L/h) KBiliary: 1.6 L/h
  Fecal excretion rate from gut (L/h) KFeces: 1 L/h
  Portal GI absorption rate into liver (L/h) KAS: 1 L/h
  Urine excretion rate from kidney (L/h) KUrine: 0.2 L/h
  Metabolism rate in liver, Total (L/h) KMetab: 0.01 L/h
Pregnant dams and pups; 180 mg/kg per day, ref EFSA 2005
  Maternal liver toxicity: induce maternal liver toxicity
Pregnant dams and pups
  Critical toxicity: Reduced maternal and pup BW
  NOAEL (mg/kg bw): 71 mg/kg bw
Wistar rats [4]; male, Wistar (HanTac:WH)
  Shortening of AGDI compared with male controls (normalized AGDI scale): around 10%
Wistar rats [4]; male, Wistar, 20 mg/kg
  AGDI mean: 2.13
Wistar rats [4]; male, Wistar, 60 mg/kg
  AGDI mean: 1.98
Wistar rats [4]; male, Wistar, 60 mg/kg/day
  AGDI reduction (%): 16%
Wistar rats [4]; male, Wistar, 180 mg/kg
  AGDI mean: 2.09
Wistar rats [4]
  Nipple retention at PD14, statistics in words: no statistically significant effects on nipple retention
[5]
  Measured concentration in male fetuses: 6.6 µM

## NC(=O)Nc1ccc(Cl)c(Cl)c1 [DPU, 1-(3,4-Dichlorophenyl)urea]
NCI-H295R cells; Homo sapiens, NCI-H295R
  IC50: 5 µM
[1]
  log Kow: 2.00
[2]; PBK model parameter
  Urine excretion rate from kidney (L/h) KUrine: 0.05 L/h
[2]; conversion of parent compound into active metabolite
  Metabolism rate in liver, Metabolite: 0.25 L/h

## CC1(C(=O)Nc2ccc(O)c(Cl)c2Cl)CCCCC1 [Fenhexamide, fenhexamid]
[6]; plasma
  Unbound plasma fraction (%): 5.7^g %
NCI-H295R cells
  Effect on androgen (steroid) synthesis, in words: inhibited testosterone synthesis
NCI-H295R cells; Homo sapiens, NCI-H295R
  IC20: 5.2 µM
NCI-H295R cells; multiple contrast tests
  Androstendione, LOEC: 12.5 µM
  Corticosterone, LOEC: 3.1 µM
  Cortisol, LOEC: 3.1 µM
  DHEA, LOEC: 12.5 µM
  Estradiol, LOEC: 12.5 µM
  OH-Progesterone, LOEC: 25 µM
  Progesterone, LOEC: 12.5 µM
  Testosterone, lowest observed effect concentration (LOEC): 6.3 µM
[1]
  log Kow: 3.51
[2]; PBK model parameter
  Fecal excretion rate from gut (L/h) KFeces: 3 L/h
  Portal GI absorption rate into liver (L/h) KAS: 1 L/h
  Urine excretion rate from kidney (L/h) KUrine: 0.05 L/h
  Metabolism rate in liver, Total (L/h) KMetab: 0.15 L/h
Pregnant dams and pups
  Critical toxicity: Reduced maternal body and organ weight
  LOAEL (mg/kg bw): 450 mg/kg bw
  NOAEL (mg/kg bw): 45 mg/kg bw

## CON(C)C(=O)Nc1ccc(Cl)c(Cl)c1 [Linuron, linuron, reference compound]
[6]; ref Wetmore et al. (2012)
  Unbound plasma fraction (%): 10.5^g %
NCI-H295R cells
  Effect on androgen (steroid) synthesis, in words: inhibited the synthesis of androgens
NCI-H295R cells; Homo sapiens, NCI-H295R
  IC50: 27 µM
[1]
  log Kow: 3.20
Sprague-Dawley rats; Study 2, dose causing 10% AGDI reduction, regression
  AGDI ED10: 27 mg/kg BW
Sprague-Dawley rats; dose 25 mg/kg BW (control 1.00)
  AGDI mean: 0.91
Sprague-Dawley rats; dose 50 mg/kg BW (control 1.00)
  AGDI mean: 0.72
Sprague-Dawley rats; highest dose, 75 mg/kg per day
  Maternal toxicity: Maternal toxicity was observed
Sprague-Dawley rats; dose 25 mg/kg BW per day
  AGDI reduction (%): 9%
Sprague-Dawley rats; dose 50 mg/kg BW per day
  AGDI reduction (%): 28%
[2]; PBK model parameter
  Fecal excretion rate from gut (L/h) KFeces: 0.08 L/h
  Portal GI absorption rate into liver (L/h) KAS: 0.5 L/h
  Urine excretion rate from kidney (L/h) KUrine: 0.05 L/h
  Metabolism rate in liver, Total (L/h) KMetab: 1.0 L/h

## Cc1cc(C)nc(Nc2ccccc2)n1 [Pyrimethanil, pyrimethanil]
[6]; plasma
  Unbound plasma fraction (%): 2.0^g %
NCI-H295R cells
  Effect on androgen (steroid) synthesis, in words: no effect on any measured androgen
NCI-H295R cells; Homo sapiens, NCI-H295R
  IC20: > 50 µM
[1]
  log Kow: 2.84
[2]; PBK model parameter
  Fecal excretion rate from gut (L/h) KFeces: 0.1 L/h
  Portal GI absorption rate into liver (L/h) KAS: 1 L/h
  Urine excretion rate from kidney (L/h) KUrine: 0.01 L/h
  Metabolism rate in liver, Total (L/h) KMetab: 0.8 L/h
Pregnant dams and pups
  Critical toxicity: Reduced maternal and pup BW
  LOAEL (mg/kg bw): 294 mg/kg bw
  NOAEL (mg/kg bw): 23 mg/kg bw

## Oc1ccccc1-c1ccccc1 [o -Phenylphenol, o -phenylphenol]
[6]; ref Wetmore et al. (2012)
  Unbound plasma fraction (%): 4.1^g %
NCI-H295R cells
  Effect on androgen (steroid) synthesis, in words: inhibited testosterone synthesis
NCI-H295R cells; NCI-H295R cells
  IC20: 25 µM
NCI-H295R cells; multiple contrast tests
  Estradiol, LOEC: 25 µM
  Testosterone, lowest observed effect concentration (LOEC): 50 µM
[1]
  log Kow: 3.09
[2]; PBK model parameter
  Fecal excretion rate from gut (L/h) KFeces: 0.1 L/h
  Portal GI absorption rate into liver (L/h) KAS: 1 L/h
  Urine excretion rate from kidney (L/h) KUrine: 0.01 L/h
  Metabolism rate in liver, Total (L/h) KMetab: 0.2 L/h
Pregnant dams and pups
  Critical toxicity: Maternal BW gain, bladder & kidney effect
  LOAEL (mg/kg bw): 140 mg/kg bw
  NOAEL (mg/kg bw): 40 mg/kg bw
